Key:
[1] = Displacement of FAM labeled PMI from human MDM2 (1 to 114 residues) by fluorescence polarization assay
[2] = biological target: T1, E3 ubiquitin-protein ligase Mdm2 (Homo sapiens, UniProt Q00987); experiment: Displacement of FAM labeled p53 fragment from human MDM2 (1 to 116 residues) incubated for 1 hrs by fluorescence polarization assay
[3] = biological target: T1, E3 ubiquitin-protein ligase Mdm2; experiment: Inhibition of human MDM2 incubated for 1 hrs by TR-FRET assay
[4] = tested on: RS4-11; experiment: Anticancer activity against human RS4-11 cells assessed as cell viability incubated for 3 days by CellTiterGlo assay; format: functional, cell-based; conditions: RS4-11, 72 h
[5] = biological target: Tumour suppressor p53/oncoprotein Mdm2 (Homo sapiens, UniProt Q00987); experiment: Inhibition of human MDM2 to p53 (unknown origin) protein protein interaction; format: protein assay
[6] = biological target: T2, Protein Mdm4 (Homo sapiens, UniProt O15151); experiment: Inhibition of human MDM4 (1 to 116 residues) incubated for 1 hrs by fluorescence polarization assay
T2 sequence (O15151 whole entry): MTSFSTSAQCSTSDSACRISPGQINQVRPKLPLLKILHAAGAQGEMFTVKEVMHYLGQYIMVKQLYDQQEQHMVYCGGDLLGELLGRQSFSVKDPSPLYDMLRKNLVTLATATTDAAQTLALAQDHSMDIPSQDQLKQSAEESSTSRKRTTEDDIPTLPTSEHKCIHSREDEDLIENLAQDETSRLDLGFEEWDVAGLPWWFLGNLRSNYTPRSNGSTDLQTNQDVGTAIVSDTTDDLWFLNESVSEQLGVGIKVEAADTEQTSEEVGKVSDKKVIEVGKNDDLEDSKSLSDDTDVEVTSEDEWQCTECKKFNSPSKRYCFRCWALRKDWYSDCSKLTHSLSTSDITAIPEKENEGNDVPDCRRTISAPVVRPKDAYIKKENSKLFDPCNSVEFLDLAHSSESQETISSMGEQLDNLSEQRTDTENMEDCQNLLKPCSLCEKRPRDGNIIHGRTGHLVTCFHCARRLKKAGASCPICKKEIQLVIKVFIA

T1 sequence (Q00987 whole entry, the tested form may be a part): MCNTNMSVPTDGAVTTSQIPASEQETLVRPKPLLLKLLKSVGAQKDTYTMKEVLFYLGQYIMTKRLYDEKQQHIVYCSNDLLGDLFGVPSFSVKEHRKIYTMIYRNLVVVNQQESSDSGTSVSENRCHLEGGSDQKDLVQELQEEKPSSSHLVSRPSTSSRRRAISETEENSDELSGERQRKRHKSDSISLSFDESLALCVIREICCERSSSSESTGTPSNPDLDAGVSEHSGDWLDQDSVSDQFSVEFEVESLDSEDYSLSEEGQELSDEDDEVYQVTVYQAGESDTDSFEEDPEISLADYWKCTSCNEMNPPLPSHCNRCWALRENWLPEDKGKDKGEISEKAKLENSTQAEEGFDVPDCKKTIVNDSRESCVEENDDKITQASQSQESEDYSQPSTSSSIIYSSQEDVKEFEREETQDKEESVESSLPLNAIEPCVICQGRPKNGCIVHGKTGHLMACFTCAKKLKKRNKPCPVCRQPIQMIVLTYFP
Chain of Tumour suppressor p53/oncoprotein Mdm2 (P04637 whole entry, the tested form may be a part): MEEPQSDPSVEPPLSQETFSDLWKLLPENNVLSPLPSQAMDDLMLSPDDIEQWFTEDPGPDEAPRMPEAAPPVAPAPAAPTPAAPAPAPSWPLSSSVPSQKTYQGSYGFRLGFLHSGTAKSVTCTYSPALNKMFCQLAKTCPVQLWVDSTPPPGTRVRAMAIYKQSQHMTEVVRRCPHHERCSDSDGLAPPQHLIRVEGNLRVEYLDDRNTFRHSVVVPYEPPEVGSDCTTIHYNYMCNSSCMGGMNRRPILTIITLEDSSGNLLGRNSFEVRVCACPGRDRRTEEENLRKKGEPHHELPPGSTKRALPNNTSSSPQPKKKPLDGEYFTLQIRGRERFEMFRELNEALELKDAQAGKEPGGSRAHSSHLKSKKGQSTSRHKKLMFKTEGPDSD
Chain of Tumour suppressor p53/oncoprotein Mdm2 (Q00987 whole entry, the tested form may be a part): as the sequence (Q00987 whole entry, the tested form may be a part) above

| IC50 [1] | IC50 [2] | IC50 [3] | IC50 [4] | IC50 [5] | IC50 [6] | Compound |
| --- | --- | --- | --- | --- | --- | --- |
| 16900 nM | 8100 nM |  |  |  |  | CC[C@H](C)[C@@H]1NC(=O)[C@H](C(C)C)NC(=O)Cn2cc(nn2)CC(C(N)=O)NC(=O)[C@@H](Cc2ccsc2)NC(=O)[C@H](Cc2ccc(Cl)cc2)NC(=O)C[C@@H](C(=O)O)NC(=O)[C@H](CCSC)NC(=O)[C@H](CC(=O)O)NC1=O (stereo partly specified) |
|  |  | 9 nM | > 50000 nM | 8.9 nM | 9 nM | CC(C)[C@@H]1NC(=O)Cn2cc(nn2)C[C@H](C(N)=O)NC(=O)[C@@H]2C[C@@H](CN2C(=O)c2ccccc2)NC(=O)[C@H](Cc2cccc(C(F)(F)F)c2)NC(=O)[C@@H](C(C)C)CNC(=O)CNC(=O)[C@H](Cc2ccccc2)NC(=O)[C@H](Cc2c[nH]c3ccccc23)NC1=O |
|  |  | 43 nM | > 50000 nM |  | 43 nM | CC(C)[C@@H]1NC(=O)Cn2cc(nn2)C[C@@H](C(N)=O)NC(=O)[C@@H]2C[C@@H](CN2C(=O)c2ccccc2)NC(=O)[C@H](Cc2cccc(C(F)(F)F)c2)NC(=O)[C@@H](C(C)C)CNC(=O)CNC(=O)[C@H](Cc2ccccc2)NC(=O)[C@H](Cc2c[nH]c3ccccc23)NC1=O |
| 2000 nM | 90 nM |  |  |  |  | CC(C)[C@@H]1NC(=O)Cn2cc(nn2)CC(C(N)=O)NC(=O)[C@@H]2C[C@@H](CN2C(=O)c2ccccc2)NC(=O)[C@H](Cc2cccc(C(F)(F)F)c2)NC(=O)[C@@H](C(C)C)CNC(=O)CNC(=O)[C@H](Cc2ccccc2)NC(=O)[C@H](Cc2c[nH]c3ccccc23)NC1=O (stereo partly specified) |

Reference: ChEMBL document CHEMBL5316378, “DNA-Encoded Macrocyclic Peptide Libraries Enable the Discovery of a Neutral MDM2-p53 Inhibitor” (ACS Med Chem Lett, 2023)
